# Measured values taken from patent publication US10058545B2, “Method of treating pulmonary arterial hypertension” (Cipla Limited, priority 2016, dated 2018).
# Legend:
# [1] = system: pulmonary arterioles of rats with monocrotaline induced pulmonary arterial hypertension; assay: Monocrotaline rat PAH model: lung histopathology (smooth muscle hypertrophy, muscularization of pulmonary arterioles); format: in vivo, Sprague-Dawley rats; conditions: for mean hypertrophy score (smooth muscle hypertrophy of small arterioles): score 0 (normal) to 4 (marked), monocrotaline+vehicle 2.7
# Method: (§1) Male Sprague-Dawley rats in groups 2 to 5 were administered […] of body weight of Monocrotaline in DMSO subcutaneously to induce PAH on day 1. The DMSO group (Group 1) received a single dose of DMSO subcutaneously on day 1. The vehicle group received 5 ml of vehicle every morning. The cinitapride as well as sildenafil groups were orally administered cinitapride (0.3 or 0.9 mg/kg total daily dose, divided into a BID regimen given every day for 28 days starting on Day 1), or sildenafil (30 mg/kg, administered twice daily). On the twenty-eighth day after monocrotaline dosing, the rats were anesthetized with ketamine/xylazine for terminal monitoring of pulmonary and systemic arterial pressures along with heart rate.
# Later the animals were sacrificed and histopathological evaluation was performed to assess pulmonary arterioles for smooth muscle hypertrophy & muscularization of pulmonary arterioles.
# The elastin/eosin stained lung section were examined microscopically and histopathological findings were recorded as smooth muscle hypertrophy of small arterioles and muscularization of pulmonary arterioles. The finding were recorded as 0 (normal), 1 (minimal), 2 (mild), 3 (moderate) or 4 (marked). Scoring smooth muscle hypertrophy in small pulmonary arterioles was based on the thickness of muscular wall & extent of finding (apparent no. of arterioles affected).
# [2] = system: rats with monocrotaline induced pulmonary arterial hypertension; assay: Monocrotaline rat PAH efficacy model: terminal hemodynamics, heart/lung weights; conditions: for Body Weight / HR / HW/BW / Heart Weight / LV Weight / Lung Weight / MAP / Mean PAP / RV Weight / RV/BW / RV/LV + S (Fulton's Index) / Systolic PAP: Day 28 after MCT, Mean ± SEM
# Method: The studies were conducted for hemodynamic evaluation of cinitpride in anesthetized sprague dawley rats treated with monocrotaline (“MCT”) to induce pulmonary arterial hypertension. Sildenafil was used as an internal control to compare the effects of cinitapride.
# The effects of cinitapride were evaluated in rats with monocrotaline induced pulmonary arterial hypertension using sildenafil as standard care treatment. Male Sprague-Dawley rats were orally administered vehicle cinitapride (0.3 or 0.9 mg/kg total daily dose, divided into a BID regimen given every day for 28 days starting on Day 1), or sildenafil (30 mg/kg, administered twice daily) (n=10 in each group). Rats received a single injection of monocrotaline (60 mg/kg, s.c.) on Study Day 1. On the twenty-eighth day following monocrotaline dosing, the rats were anesthetized with ketamine/xylazine for terminal monitoring of pulmonary and systemic arterial pressures along with heart rate.
# Vehicle (0.5% Methylcellulose+0.2% Tween 80 in deionized water, Cinitapride (0.3 or 0.9 mg/kg total daily dose; Sildenafil (30 mg/kg, administered twice daily)
# as §1
# [3] = Cinitapride 0.3 mg/kg per day bid, oral
# [4] = Cinitapride 0.9 mg/kg per day bid, oral
# [5] = Sildenafil 60 mg/kg per day bid, oral
smiles,measurement,setting,value
CCOc1cc(N)c([N+](=O)[O-])cc1C(=O)NC1CCN(CC2CC=CCC2)CC1 (centres unmarked) [Cinitapride],"completely muscularized arterioles, group mean percentage","[1]; 0.45 mg/kg cinitapride twice daily following MCT, vehicle following MCT 52.1%",38.2%
same,vascular smooth muscle hypertrophy compared to control group (FIG. 4),[1]; cinitapride 0.15 mg/kg after monocrotaline induction,mild vascular smooth muscle hypertrophy
same,presence of smooth muscle hypertrophy in small arterioles,[1]; cinitapride 0.15 mg/kg and 0.45 mg/kg twice daily following Monocrotaline,substantially decreased
same,vascular smooth muscle hypertrophy compared to control group (FIG. 5),[1]; cinitapride 0.45 mg/kg after monocrotaline induction,mild vascular smooth muscle hypertrophy
same,mean hypertrophy score (smooth muscle hypertrophy of small arterioles),[1]; monocrotaline+cinitapride 0.15 bid,1.9
same,mean hypertrophy score (smooth muscle hypertrophy of small arterioles),[1]; monocrotaline+cinitapride 0.45 bid,2.1
same,systolic pulmonary arterial pressure compared to the vehicle group,"[2]; 0.9 mg/kg/day cinitapride, after 28 days",reduction in systolic pulmonary arterial pressure
same,Body Weight,[2]; [3],0.32 ± 0.02 kg
same,HR,[2]; [3],299 ± 17 bpm
same,HW/BW,[2]; [3],3.71 ± 0.20
same,Heart Weight,[2]; [3],1.17 ± 0.05 g
same,LV Weight,[2]; [3],0.68 ± 0.04 g
same,Lung Weight,[2]; [3],2.36 ± 0.16 g
same,MAP,[2]; [3],77 ± 8 mmHg
same,Mean PAP,[2]; [3],43 ± 5 mmHg
same,RV Weight,[2]; [3],0.35 ± 0.02 g
same,RV/BW,[2]; [3],1.14 ± 0.10
same,RV/LV + S (Fulton's Index),[2]; [3],0.53 ± 0.04
same,Systolic PAP,[2]; [3],55 ± 8 mmHg
same,Body Weight,[2]; [4],0.32 ± 0.02 kg
same,HR,[2]; [4],295 ± 9 bpm
same,HW/BW,[2]; [4],3.52 ± 0.16
same,Heart Weight,[2]; [4],1.10 ± 0.05 g
same,LV Weight,[2]; [4],0.70 ± 0.03 g
same,Lung Weight,[2]; [4],2.30 ± 0.20 g
same,MAP,[2]; [4],76 ± 2 mmHg
same,Mean PAP,[2]; [4],37 ± 3 mmHg
same,RV Weight,[2]; [4],0.31 ± 0.03 g
same,RV/BW,[2]; [4],1.01 ± 0.11
same,RV/LV + S (Fulton's Index),[2]; [4],0.45 ± 0.04
same,Systolic PAP,[2]; [4],45 ± 4 mmHg
same,"effect on right ventricular hypertrophy (RV/LV+S, Fulton's Index) compared to vehicle",[2]; cinitapride 0.3 mg/kg/day,−10%
same,"effect on right ventricular hypertrophy (RV/LV+S, Fulton's Index) compared to vehicle",[2]; cinitapride 0.9 mg/kg/day,−25%
same,"efficacy at reducing monocrotaline-induced pulmonary hypertension (overall mortality, pulmonary hemodynamics, right ventricular hypertrophy) versus sildenafil","[2]; cinitapride 0.9 mg/kg/day given BID, oral",superior to the positive control
same,"decrease in hypertrophy, RV (wt) corrected by body weight","[2]; cinitapride highest dose, p<0.05",33%
same,activity in controlling or reducing PAH relative to Sildenafil,"[2]; rat, in vivo",comparable
same,heart rate or mean arterial pressure compared to vehicle,[2]; rats treated with cinitapride,No substantive differences
CCCc1nn(C)c2c(=O)[nH]c(-c3cc(S(=O)(=O)N4CCN(C)CC4)ccc3OCC)nc12 [Sildenafil],Body Weight,[2]; [5],0.32 ± 0.01 kg
same,HR,[2]; [5],278 ± 21 bpm
same,HW/BW,[2]; [5],3.89 ± 0.17
same,Heart Weight,[2]; [5],1.24 ± 0.02 g
same,LV Weight,[2]; [5],0.74 ± 0.02 g
same,Lung Weight,[2]; [5],2.36 ± 0.13 g
same,MAP,[2]; [5],69 ± 5 mmHg
same,Mean PAP,[2]; [5],38 ± 6 mmHg
same,RV Weight,[2]; [5],0.38 ± 0.02 g
same,RV/BW,[2]; [5],1.19 ± 0.09
same,RV/LV + S (Fulton's Index),[2]; [5],0.51 ± 0.03
same,Systolic PAP,[2]; [5],46 ± 7 mmHg
same,hypertrophic index (RV wt corrected by body weight),[2]; sildenafil,decrease
